Test [1] concerns the target His tagged PTPN2 (TC45) protein (Homo sapiens (Human), UniProt P17706). Put plainly: PTPN2 Mobility Shift Assay (MSA). Format: biochemical. To be noted: for Dihydrobenzofuran or Indoline x-fold>potency biochemical: x-fold versus corresponding chromane comparator, PTPN2 MSA. As to the method: Example III-1: Mobility Shift Assay (MSA) Used to Determine Potency of PTPN2 Inhibitors
Compound activity was determined using in house His tagged PTPN2 (TC45) protein (SEQ ID NO: 1) in an in vitro enzymatic reaction. The enzymatic assay used to determine activity was a mobility shift assay using a LabChip EZ Reader by Caliper Life Sciences. The enzymatic reaction was carried out in assay buffer (50 mM HEPES pH 7.5, 1 mM EGTA, 10 mM EDTA, 0.01% Tween® 20, and 2 mM DTT). The compounds were dispensed on a white 384 well ProxiPlate™ (PerkinElmer Catalog #6008289) plate using the Labcyte Echo at varying concentrations (12 point, 1:3 dilution). The enzyme (at 0.5 nM) was incubated with compound for 10 minutes at room temperature. Thereafter, the substrate (phosphorylated insulin receptor probe sequence: ((OG488)-(NH—CH2—CH2—O—CH2—CH2—O—CH2—CO)-T-R-D-I—(PY)-E-T-D-Y—Y—R—K—K—NH2) (SEQ ID NO: 2) was added at 2 μM to the plates and incubated for another 10 minutes at room temperature. Finally, a quench solution (water and 4-bromo-3-(2-oxo-2-propoxyethoxy)-5-(3-{[1-(phenylmethanesulfonyl)piperidin-4-yl]amino}phenyl)thiophene-2-carboxylic acid) was added to the plates, which were then run on the EZ Reader (excitation 488 nm, emission 530 nm) to measure % conversion (the amount of phosphorylated substrate which was de-phosphorylated by PTPN2). […] The % inhibition was then used to calculate the IC50 values.

The target in test [2] is His tagged full-length PTPN1 protein (Homo sapiens (Human), UniProt P18031). Put plainly: PTPN1 Mobility Shift Assay (MSA). To be noted: enzyme 0.5 nM, substrate 2 μM. Format: biochemical. How it is done: Example III-2: Mobility Shift Assay (MSA) Used to Determine Potency of PTPN1 Inhibitors
Compound activity was determined using in house His tagged full-length PTPN1 protein (SEQ ID NO: 3) in an in vitro enzymatic reaction. The enzymatic assay used to determine activity is a mobility shift assay using a LabChip EZ Reader by Caliper Life Sciences. The enzymatic reaction was carried out in assay buffer (50 mM HEPES pH 7.5, 1 mM EGTA, 10 mM EDTA, 0.01% Tween® 20, and 2 mM DTT). The compounds were dispensed on a white 384 well ProxiPlate™ (PerkinElmer Cat ^#6008289) plate using a Labcyte Echo® liquid handler at varying concentrations (12 point, 1:3 dilution). The enzyme (at 0.5 nM) was incubated with compound for 10 minutes at room temperature. Thereafter, the substrate (phosphorylated insulin receptor probe sequence: ((OG488)-(NH—CH2—CH2—O—CH2—CH2—O—CH2—CO)-T-R-D-I—(PY)-E-T-D-Y—Y—R—K—K—NH2) (SEQ ID NO: 2) was added at 2 μM to the plates and incubated for another 10 minutes at room temperature. Finally, a quench solution (water and 4-bromo-3-(2-oxo-2-propoxyethoxy)-5-(3-{[1-(phenylmethanesulfonyl)piperidin-4-yl]amino}phenyl)thiophene-2-carboxylic acid) was added to the plates, which were then run on the EZ Reader (excitation 488 nm, emission 530 nm) to measure % conversion (the amount of phosphorylated substrate which was de-phosphorylated by PTPN1). […] The % inhibition was then used to calculate the IC50 values.

In test [3] the test system is IFNγ-induced STAT1 phosphorylation (pSTAT1) in B16F10 cells. Put plainly: B16F10 Phospho-STAT1 HTRF proximal pharmacodynamic (PD) assay. To be noted: for EC50: B16-F10, B16F10 cells; for Dihydrobenzofuran or Indoline x-fold>potency cellular: x-fold versus corresponding chromane comparator, B16F10 pSTAT1. It is filed as cell-based, murine. As to the method:
Example III-3: B16F10 (Murine Melanoma Cells) Phospho-STAT1 HTRF Proximal Pharmacodynamic (PD) Assay
B16F10 cells were grown and maintained in high glucose DMEM (Gibco, Catalog^#11965-092, Dun Laoghaire Co Dublin) supplemented with 10% fetal bovine serum (Gibco, Catalog^#10082-139, Dun Laoghaire Co Dublin). The cells were pelleted and resuspended in high glucose DMEM without phenol red (Gibco, Catalog^#11054-020, Dun Laoghaire Co Dublin), supplemented with 10% fetal bovine serum and plated in a 384 well Corning plate (product^#3765, Corning, NY) at 11,000 cells per well in a volume of 20 μL. The cells were dosed with the compounds of interest using an Echo Liquid Handler (Beckman Coulter, Brea, CA) at 50 μM top dose with 3-fold dilutions down to 0.002679 μM for a 10-point dose response. The plate was incubated for 3 hours at 37° C. and subsequently treated with recombinant mouse IFNγ (R&D Systems, Catalog^#485-MI, Minneapolis, MN; 100 nM final concentration) for 10 minutes at 37° C. to induce STAT1 phosphorylation followed by 3.3 μM staurosporine treatment for 1 hour at 37° C. to terminate phosphorylation. Media was then aspirated and 20 μL of 1× lysis buffer/blocking reagent (Cisbio Phospho-STAT1 kit, part^# 63ADK026PEH, Bedford, MA) was added. The plate was placed on a plate shaker for 30 minutes at room temperature, sealed, and stored at −80° C. until needed. To thaw, the plate was placed on shaker at room temperature until completely thawed while the antibody master mix was made (1:40 Phospho-STAT1 Eu Cryptate antibody, 1:40 Phospho-STAT d2 antibody, with the detection buffer; Cisbio Phospho-STAT1 kit, part^#63ADK026PEH, Bedford, MA). The antibody master mix was then dispensed at 4 μL per well into a 384 ProxiPlate Plus (PerkinElmer, part^#6008289, Waltham, MA) and 16 μL of lysate was added from the Corning plate to the Proxiplate using a VIAFLO 384 (INTEGRA). The plate was incubated for 3 hours at room temperature and read on an EnVision® (Perkin Elmer) plate reader with laser excitation at 335 nm and emission at 665 nm. Dotmatics Studies (Bishop's Stortford, UK) was utilized to generate all dose-response curves and calculate EC50s and are shown in Table 2.
A general note: Time-resolved FRET reads energy transfer from a long-lived donor to a nearby acceptor.

The mark [4] stands for this setting: 3 hours compound, 100 nM mouse IFNγ 10 minutes, read-out: B16F10 IFNγ Induced pSTAT1 EC50.
The mark [5] stands for this setting: Table 3, dihydrobenzofuran or indoline compound (X = O or NH).
The mark [6] stands for this setting: Mus musculus, Table 3, dihydrobenzofuran or indoline compound (X = O or NH), read-out: pSTAT1 EC50.

Read-outs that look alike come from different tables or passages of the source.

Sequence of His tagged full-length PTPN1 protein (P18031 whole entry): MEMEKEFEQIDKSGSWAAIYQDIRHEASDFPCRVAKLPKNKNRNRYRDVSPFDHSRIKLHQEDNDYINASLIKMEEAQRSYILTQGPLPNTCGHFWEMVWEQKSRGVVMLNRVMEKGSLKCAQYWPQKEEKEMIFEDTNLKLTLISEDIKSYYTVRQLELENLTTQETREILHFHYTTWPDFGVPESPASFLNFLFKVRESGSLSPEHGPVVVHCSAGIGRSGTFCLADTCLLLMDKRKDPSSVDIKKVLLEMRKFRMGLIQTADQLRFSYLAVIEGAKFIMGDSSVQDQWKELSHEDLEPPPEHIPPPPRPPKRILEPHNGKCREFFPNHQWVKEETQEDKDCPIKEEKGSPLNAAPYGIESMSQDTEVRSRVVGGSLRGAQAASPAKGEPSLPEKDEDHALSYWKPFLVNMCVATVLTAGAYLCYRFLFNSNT
Sequence of His tagged PTPN2 (TC45) protein (P17706 other isoform, or with tags, fused parts or gaps): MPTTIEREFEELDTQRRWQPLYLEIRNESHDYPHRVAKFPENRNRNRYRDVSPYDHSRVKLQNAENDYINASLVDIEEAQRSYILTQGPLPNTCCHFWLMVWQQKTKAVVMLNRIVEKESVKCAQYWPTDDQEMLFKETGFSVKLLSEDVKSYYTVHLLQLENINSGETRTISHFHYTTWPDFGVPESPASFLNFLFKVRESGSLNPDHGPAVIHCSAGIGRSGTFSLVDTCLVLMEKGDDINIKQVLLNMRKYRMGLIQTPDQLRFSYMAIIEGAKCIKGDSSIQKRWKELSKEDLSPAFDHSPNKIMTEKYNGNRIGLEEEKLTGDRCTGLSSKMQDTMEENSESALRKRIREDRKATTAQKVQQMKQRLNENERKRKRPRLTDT

As usually defined, the IC50 is the concentration needed to halve the response being measured. For orientation: EC50 means the concentration giving half of the maximal effect. For `COCCNC[C@H]1Cc2c(cc(O)c(N3CC(=O)NS3(=O)=O)c2F)N1` [Compound 136, 5-[(2R)-4-fluoro-6-hydroxy-2-{[(2-methoxyethyl)amino]methyl}-2,3-dihydro-1H-indol-5-yl]-1λ^6,2,5-thiadiazolidine-1,1,3-trione], the IC50 lay in the range of 10 to 100 nM in test [1] (enzyme 0.5 nM, substrate 2 μM) and 10 to 100 nM in test [2]. For the same molecule, the EC50 in test [3] (setting [4]) stood at 1230 nM.
`CC(C)(C)CCNC[C@H]1Cc2c(cc(O)c(N3CC(=O)NS3(=O)=O)c2F)N1` [Compound 153, 5-[(2R)-2-{[(3,3-dimethylbutyl)amino]methyl}-4-fluoro-6-hydroxy-2,3-dihydro-1H-indol-5-yl]-1λ^6,2,5-thiadiazolidine-1,1,3-trione]: the half-maximal inhibitory concentration (IC50) was 10 to 100 nM in test [1] (enzyme 0.5 nM, substrate 2 μM) and 10 to 100 nM in test [2]. Further, the half-maximal effective concentration (EC50) in test [3] (setting [4]) amounted to 2010 nM.
For `O=C1CN(c2c(O)cc3c(c2F)C[C@H](CNCCC(F)F)N3)S(=O)(=O)N1` [Compound 140, 5-[(2R)-2-{[(3,3-difluoropropyl)amino]methyl}-4-fluoro-6-hydroxy-2,3-dihydro-1H-indol-5-yl]-1λ^6,2,5-thiadiazolidine-1,1,3-trione], the IC50 is 15.2 nM in test [1] (setting [5]); 10 to 100 nM in test [1] (enzyme 0.5 nM, substrate 2 μM); 10 to 100 nM in test [2]. In addition, in test [1], the “Dihydrobenzofuran or Indoline x-fold>potency biochemical” value stood at 0.6. For the same molecule, the EC50 in test [3] (setting [4]) and in test [3] (setting [6]) was 701 nM throughout. Further, the “Dihydrobenzofuran or Indoline x-fold>potency cellular” value in test [3] amounted to 5.1.
With `O=C1CN(c2c(O)cc3c(c2F)C[C@H](CNCCCC(F)F)O3)S(=O)(=O)N1` [Compound 107, 5-[(2R)-2-{[(4,4-difluorobutyl)amino]methyl}-4-fluoro-6-hydroxy-2,3-dihydro-1-benzofuran-5-yl]-1λ^6,2,5-thiadiazolidine-1,1,3-trione], the IC50 in test [1] (setting [5]) is 13.3 nM; in test [1] (enzyme 0.5 nM, substrate 2 μM) it was 10 to 100 nM; in test [2], 10 to 100 nM. In test [1], the “Dihydrobenzofuran or Indoline x-fold>potency biochemical” value worked out at 0.7. Besides, the EC50 in test [3] (setting [4]) and in test [3] (setting [6]) was 1330 nM each time. Further, in test [3], the “Dihydrobenzofuran or Indoline x-fold>potency cellular” value worked out at 2.7.
Take `O=C1CN(c2c(O)cc3c(c2F)C[C@H](CNCC2COC2)O3)S(=O)(=O)N1` [Compound 120, 5-[(2R)-4-fluoro-6-hydroxy-2-({[(oxetan-3-yl)methyl]amino}methyl)-2,3-dihydro-1-benzofuran-5-yl]-1λ^6,2,5-thiadiazolidine-1,1,3-trione]: the IC50 in test [1] (enzyme 0.5 nM, substrate 2 μM) lay within 10 to 100 nM; in test [2], 10 to 100 nM. For the same molecule, the EC50 in test [3] (setting [4]) is 1610 nM.
For the molecule `O=C1CN(c2c(O)cc3c(c2F)C[C@H](CNCC2CC(F)(F)C2)N3)S(=O)(=O)N1` [Compound 143, 5-[(2R)-2-({[(3,3-difluorocyclobutyl)methyl]amino}methyl)-4-fluoro-6-hydroxy-2,3-dihydro-1H-indol-5-yl]-1λ^6,2,5-thiadiazolidine-1,1,3-trione], the half-maximal inhibitory concentration (IC50) in test [1] (enzyme 0.5 nM, substrate 2 μM) was 10 to 100 nM; in test [2], 10 to 100 nM. In test [3] (setting [4]), the concentration for a half-maximal effect (EC50) worked out at 1000 nM.
As to `O=C1CN(c2c(O)cc3c(c2F)C[C@H](CNCC2CC2)N3)S(=O)(=O)N1` [Compound 147, 5-[(2R)-2-{[(cyclopropylmethyl)amino]methyl}-4-fluoro-6-hydroxy-2,3-dihydro-1H-indol-5-yl]-1λ^6,2,5-thiadiazolidine-1,1,3-trione], the IC50 in test [1] (enzyme 0.5 nM, substrate 2 μM) lay in the range of 10 to 100 nM; in test [2] it was 10 to 100 nM. Besides, the 50% effective concentration (EC50) in test [3] (setting [4]) came to 1840 nM.
`O=C1CN(c2c(O)cc3c(c2F)C[C@H](CNCCC2CCOCC2)O3)S(=O)(=O)N1` [Compound 125, 5-[(2R)-4-fluoro-6-hydroxy-2-({[2-(oxan-4-yl)ethyl]amino}methyl)-2,3-dihydro-1-benzofuran-5-yl]-1λ^6,2,5-thiadiazolidine-1,1,3-trione]: the IC50 was 8.32 nM in test [1] (setting [5]); less than 10 nM in test [1] (enzyme 0.5 nM, substrate 2 μM); 10 to 100 nM in test [2]. For the same molecule, in test [1], the “Dihydrobenzofuran or Indoline x-fold>potency biochemical” value is on record as 2.2. Moreover, the EC50 in test [3] (setting [4]) and in test [3] (setting [6]) was 3090 nM each time. The “Dihydrobenzofuran or Indoline x-fold>potency cellular” value in test [3] was found to be 10.4.
In the case of `CCC(C)CNC[C@H]1Cc2c(cc(O)c(N3CC(=O)NS3(=O)=O)c2F)N1` (stereo partly drawn) [Compound 142, 5-[(2R)-4-fluoro-6-hydroxy-2-{[(2-methylbutyl)amino]methyl}-2,3-dihydro-1H-indol-5-yl]-1λ^6,2,5-thiadiazolidine-1,1,3-trione], the IC50 in test [1] (enzyme 0.5 nM, substrate 2 μM) is 10 to 100 nM; in test [2] it was 10 to 100 nM. Besides, the concentration giving a half-maximal response (EC50) in test [3] (setting [4]) was 1140 nM.
On to `O=C1CN(c2c(O)cc3c(c2F)C[C@H](CNCCC(F)(F)F)N3)S(=O)(=O)N1` [Compound 141, 5-[(2R)-4-fluoro-6-hydroxy-2-{[(3,3,3-trifluoropropyl)amino]methyl}-2,3-dihydro-1H-indol-5-yl]-1λ^6,2,5-thiadiazolidine-1,1,3-trione], for which the half-maximal inhibitory concentration (IC50) was in the range of 10 to 100 nM in test [1] (enzyme 0.5 nM, substrate 2 μM) and 10 to 100 nM in test [2]. Further, the EC50 in test [3] (setting [4]) came out at 704 nM.
For `O=C1CN(c2c(O)cc3c(c2F)C[C@H](CNCC2C4CCCC42)O3)S(=O)(=O)N1` (mixture of isomers) [Compound 126, 5-{(2R)-2-[({[(1RS,5SR)-bicyclo[3.1.0]hexan-6-yl]methyl}amino)methyl]-4-fluoro-6-hydroxy-2,3-dihydro-1-benzofuran-5-yl}-1λ^6,2,5-thiadiazolidine-1,1,3-trione], the IC50 is 6.06 nM in test [1] (setting [5]); less than 10 nM in test [1] (enzyme 0.5 nM, substrate 2 μM); 10 to 100 nM in test [2]. In addition, the “Dihydrobenzofuran or Indoline x-fold>potency biochemical” value in test [1] was 5.3. In addition, the concentration giving a half-maximal response (EC50) in test [3] (setting [4]) and in test [3] (setting [6]) was 3670 nM each time. Also, the “Dihydrobenzofuran or Indoline x-fold>potency cellular” value in test [3] is recorded as more than 13.6.
For the molecule `CC(C)CNC[C@H]1Cc2c(cc(O)c(N3CC(=O)NS3(=O)=O)c2F)O1` [Compound 100, 5-[(2R)-4-fluoro-6-hydroxy-2-{[(2-methylpropyl)amino]methyl}-2,3-dihydro-1-benzofuran-5-yl]-1λ^6,2,5-thiadiazolidine-1,1,3-trione], the IC50 is less than 10 nM in test [1] (enzyme 0.5 nM, substrate 2 μM) and 10 to 100 nM in test [2]. Also, the concentration giving a half-maximal response (EC50) in test [3] (setting [4]) is 853 nM.

The record behind these values is patent US20250019374A1, “PROTEIN TYROSINE PHOSPHATASE INHIBITORS AND METHODS OF USE THEREOF” (Calico Life Sciences LLC, priority 2021, published 2025).
